Among the data in patent US10131653B2, “Heterocyclic compound” (TAKEDA PHARMACEUTICAL COMPANY LIMITED, priority 2015, dated 2018) are inhibition values, retold here.

Where a name gives a salt, the structure may show the parent alone. Read-outs that look alike come from different tables or passages of the source.

One experiment deals with T1, human OX1 receptor (Homo sapiens, UniProt O43613).
T1 construct: expressed in transfected cells; host or cells: CHO cells
T1 sequence (O43613 1-425): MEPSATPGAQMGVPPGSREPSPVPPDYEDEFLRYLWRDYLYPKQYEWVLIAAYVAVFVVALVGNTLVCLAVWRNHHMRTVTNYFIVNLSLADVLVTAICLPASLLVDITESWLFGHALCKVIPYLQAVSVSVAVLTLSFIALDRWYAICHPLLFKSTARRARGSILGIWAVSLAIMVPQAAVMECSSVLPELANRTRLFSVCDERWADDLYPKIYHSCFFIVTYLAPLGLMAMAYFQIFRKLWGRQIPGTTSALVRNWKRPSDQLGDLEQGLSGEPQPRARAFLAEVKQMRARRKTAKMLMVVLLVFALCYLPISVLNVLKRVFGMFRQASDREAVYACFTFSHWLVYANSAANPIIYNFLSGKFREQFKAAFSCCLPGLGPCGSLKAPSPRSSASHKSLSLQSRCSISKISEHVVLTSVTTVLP
The experiment in a line: Measurement of orexin receptor antagonistic activity (calcium fluorescence, FLIPRtetra). In kind it is cell-based. The conditions noted are these: CHO, read-out: Human Orexin1 receptor inhibition (at 10 μM). The method in brief:
(§1)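 CHO cells expressing human OX1 or OX2 receptor, cultured one day. Compound in HBSS/20 mM HEPES/0.1% BSA added, then orexin-A at 1 nM final (OX1) or 0.3 nM final (OX2); calcium fluorescence by FLIPRtetra every 1 s for 2 min.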

A further experiment deals with T2, human OX2 receptor (Homo sapiens, UniProt O43614).
T2 construct: expressed in transfected cells; host or cells: CHO cells
T2 sequence (O43614 1-444): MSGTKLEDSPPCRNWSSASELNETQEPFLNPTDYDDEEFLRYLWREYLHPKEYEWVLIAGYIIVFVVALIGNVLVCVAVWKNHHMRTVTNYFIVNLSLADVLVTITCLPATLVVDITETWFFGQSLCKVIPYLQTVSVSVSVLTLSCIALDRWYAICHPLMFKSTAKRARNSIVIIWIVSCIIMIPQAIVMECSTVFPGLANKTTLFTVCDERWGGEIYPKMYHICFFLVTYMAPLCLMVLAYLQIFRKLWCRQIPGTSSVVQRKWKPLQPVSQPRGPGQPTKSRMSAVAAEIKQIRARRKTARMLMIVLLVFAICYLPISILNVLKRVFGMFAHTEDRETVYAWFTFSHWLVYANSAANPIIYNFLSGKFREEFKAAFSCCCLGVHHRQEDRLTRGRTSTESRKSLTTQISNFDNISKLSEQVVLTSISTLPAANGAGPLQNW
The experiment is described as above. The experiment is classed as cell-based. The conditions noted are these: CHO, read-out: Human Orexin2 receptor inhibition (at 10 μM). The method in brief: as §1

Setting [1] is: 10 μM test compound, CHO cells expressing human OX1 receptor, OX-A 1 nM.
Setting [2] is: 10 μM test compound, CHO cells expressing human OX2 receptor, OX-A 0.3 nM.

The term inhibition denotes the change of the read-out against control, counted positive when it falls. With `Cc1cc(C)nc(N2CCN(C(=O)c3cccc4nccnc34)CCO2)n1` [Example 67, (2-(4,6-dimethylpyrimidin-2-yl)-1,2,5-oxadiazepan-5-yl) (quinoxalin-5-yl)methanone], the inhibition at 10 µM came out at 5% on human OX1 receptor and 44% at human OX2 receptor.

For the compound `Cc1cc(N2CCN(C(=O)c3ccccc3-n3nccn3)[C@H](C)CO2)nc(C2(C)CC2)n1` [Example 155, ((6R)-6-methyl-2-(6-methyl-2-(1-methylcyclopropyl)pyrimidin-4-yl-1,2,5-oxadiazepan-5-yl)(2-(2H-1,2,3-triazol-2-yl)phenyl)methanone hydrochloride], the inhibition at 10 µM came to 100% at human OX1 receptor (setting [1]) and 103% at human OX2 receptor (setting [2]).

Take `Cc1cc(C)nc(N2CCN(C(=O)c3cc(C)ccc3-n3nccn3)[C@H](C)CO2)c1` [Example 142, ((6R)-2-(4,6-dimethylpyridin-2-yl)-6-methyl-1,2,5-oxadiazepan-5-yl) (5-methyl-2-(2H-1,2,3-triazol-2-yl)phenyl)methanone]: the inhibition at 10 µM at human OX1 receptor worked out at 99%; at human OX2 receptor, 97%.

As to `Cc1ccc(-n2nccn2)c(C(=O)N2CCON(c3ncc(C(F)(F)F)cn3)CC2)c1` [Example 9], the inhibition at 10 µM at human OX1 receptor (setting [1]) is 91%; on human OX2 receptor (setting [2]), 74%.

For the compound `Cc1cc(C)nc(N2CCN(C(=O)c3cccc4ccn(C)c34)CCO2)n1` [Example 71, (2-(4,6-dimethylpyrimidin-2-yl)-1,2,5-oxadiazepan-5-yl) (1-methyl-1H-indol-7-yl) methanone], the inhibition at 10 µM on human OX1 receptor was found to be 53%; at human OX2 receptor, 99%.

With `Cc1nc(N2C[C@H](C)N(C(=O)c3cc(F)ccc3-n3nccn3)[C@H](C)CO2)cc(C(F)(F)F)n1` [Example 181, ((4S,6R)-4,6-dimethyl-2-(2-methyl-6-(trifluoromethyl)pyrimidin-4-yl)-1,2,5-oxadiazepan-5-yl)(5-fluoro-2-(2H-1,2,3-triazol-2-yl)phenyl)methanone], the inhibition at 10 µM at human OX1 receptor (setting [1]) is 70%; on human OX2 receptor (setting [2]) it was 83%.

As to `COc1ccccc1C(=O)N1CCON(c2nc(C)cc(C)n2)CC1` [Example 51], the inhibition at 10 µM on human OX1 receptor (setting [1]) worked out at 22%; at human OX2 receptor (setting [2]), 68%.

Take `Cc1cc(N2CC(C)N(C(=O)c3ccccc3-n3nccn3)CCO2)nc(C)n1` (stereo not drawn) [Example 187, (2-(2,6-dimethylpyrimidin-4-yl)-4-methyl-1,2,5-oxadiazepan-5-yl)(2-(2H-1,2,3-triazol-2-yl)phenyl)methanone]: the inhibition at 10 µM on human OX1 receptor (setting [1]) amounted to 100%; at human OX2 receptor (setting [2]), 103%.

Regarding `Cc1cc(C)nc(N2CCN(C(=O)c3cccc4c3ccn4C)CCO2)n1` [Example 72, (2-(4,6-dimethylpyrimidin-2-yl)-1,2,5-oxadiazepan-5-yl) (1-methyl-1H-indol-4-yl) methanone], the inhibition at 10 µM at human OX1 receptor (setting [1]) came out at 34%; on human OX2 receptor (setting [2]), 94%.

Regarding `Cc1cc(N2CCN(C(=O)c3cc(Cl)ccc3-n3nccn3)[C@H](C)CO2)nc(C)n1` [Example 194, (5-chloro-2-(2H-1,2,3-triazol-2-yl)phenyl)((6R)-2-(2,6-dimethylpyrimidin-4-yl)-6-methyl-1,2,5-oxadiazepan-5-yl)methanone], the inhibition at 10 µM at human OX1 receptor (setting [1]) came out at 66%; at human OX2 receptor (setting [2]) it was 100%.

For the compound `Cc1cc(N2CCN(C(=O)c3ccc(Cl)cc3-n3nccn3)C[C@H](C)O2)nc(C)n1` [Example 200, (4-chloro-2-(2H-1,2,3-triazol-2-yl)phenyl)((7S)-2-(2,6-dimethylpyrimidin-4-yl)-7-methyl-1,2,5-oxadiazepan-5-yl)methanone], the inhibition at 10 µM was 83% on human OX1 receptor (setting [1]) and 100% at human OX2 receptor (setting [2]).

As for `Cc1nc(C(F)F)cc(N2C[C@H](C)N(C(=O)c3cc(F)ccc3-n3nccn3)[C@H](C)CO2)n1` [Example 180, ((4S,6R)-2-(6-(difluoromethyl)-2-methylpyrimidin-4-yl)-4,6-dimethyl-1,2,5-oxadiazepan-5-yl)(5-fluoro-2-(2H-1,2,3-triazol-2-yl)phenyl)methanone], the inhibition at 10 µM at human OX1 receptor (setting [1]) turned out to be 90%; on human OX2 receptor (setting [2]), 101%.

For `Cc1ccc(C#N)c(N2CCN(C(=O)c3ccccc3-n3nccn3)[C@H](C)CO2)n1` [Example 156, 6-methyl-2-((6R)-6-methyl-5-(2-(2H-1,2,3-triazol-2-yl)benzoyl)-1,2,5-oxadiazepan-2-yl)nicotinonitrile], the inhibition at 10 µM at human OX1 receptor (setting [1]) is 18%; on human OX2 receptor (setting [2]) it was 19%.

As to `COc1cc(N2CCN(C(=O)c3ccccc3-c3nccs3)CCO2)ccn1` [Example 37, (2-(2-methoxypyridin-4-yl)-1,2,5-oxadiazepan-5-yl)(2-(1,3-thiazol-2-yl)phenyl)methanone], the inhibition at 10 µM on human OX1 receptor (setting [1]) worked out at 19%; on human OX2 receptor (setting [2]), 85%.

On to `COc1cccnc1N1CCN(C(=O)c2cc(C)ccc2-n2nccn2)[C@H](C)CO1` [Example 123, ((6R)-2-(3-methoxypyridin-2-yl)-6-methyl-1,2,5-oxadiazepan-5-yl) (5-methyl-2-(2H-1,2,3-triazol-2-yl)phenyl)methanone], for which the figures for the inhibition at 10 µM at human OX1 receptor (setting [1]) and at human OX2 receptor (setting [2]) were 23% and 74%, respectively.

For `Cc1cc(C)nc(N2CCN(C(=O)c3ccccc3-c3nccs3)C[C@H](C)O2)c1` [Example 91, ((7S)-2-(4,6-dimethylpyridin-2-yl)-7-methyl-1,2,5-oxadiazepan-5-yl)(2-(1,3-thiazol-2-yl)phenyl)methanone], the inhibition at 10 µM at human OX1 receptor (setting [1]) and on human OX2 receptor (setting [2]) was 100% each time.

Turning to `Cc1cc(C)nc(N2CCN(C(=O)c3cccc4nsnc34)CCO2)n1` [Example 73, 2,1,3-benzothiadiazol-4-yl (2-(4,6-dimethylpyrimidin-2-yl)-1,2,5-oxadiazepan-5-yl)methanone], the inhibition at 10 µM on human OX1 receptor came to 13%; on human OX2 receptor, 42%.

As to `Cc1ccc(-n2nccn2)c(C(=O)N2CCON(c3cc(C)nc(C)c3)CC2)c1` [Example 35, (2-(2,6-dimethylpyridin-4-yl)-1,2,5-oxadiazepan-5-yl)(5-methyl-2-(2H-1,2,3-triazol-2-yl)phenyl)methanone], the inhibition at 10 µM on human OX1 receptor (setting [1]) was -4%; at human OX2 receptor (setting [2]), 5%.

`COc1nc(N2CCN(C(=O)c3cc(C)ccc3-n3nccn3)[C@H](C)CO2)ncc1F` [Example 117, ((6R)-2-(5-fluoro-4-methoxypyrimidin-2-yl)-6-methyl-1,2,5-oxadiazepan-5-yl)(5-methyl-2-(2H-1,2,3-triazol-2-yl)phenyl)methanone hydrochloride]: the values for the inhibition at 10 µM at human OX1 receptor (setting [1]) and on human OX2 receptor (setting [2]) were 77% and 100%, respectively.

On to `CC[C@@H]1CON(c2cc(C)nc(C)n2)CCN1C(=O)c1ccccc1-c1nccs1` [Example 169, ((6R)-2-(2,6-dimethylpyrimidin-4-yl)-6-ethyl-1,2,5-oxadiazepan-5-yl)(2-(1,3-thiazol-2-yl)phenyl)methanone], for which the inhibition at 10 µM on human OX1 receptor (setting [1]) came out at 100%; on human OX2 receptor (setting [2]), 99%.

On to `COc1cc2c(cc1C(=O)N1CCON(c3nc(C)cc(C)n3)CC1)CCC2` [Example 77, (2-(4,6-dimethylpyrimidin-2-yl)-1,2,5-oxadiazepan-5-yl) (6-methoxy-2,3-dihydro-1H-inden-5-yl)methanone], for which the inhibition at 10 µM amounted to 12% at human OX1 receptor and 69% at human OX2 receptor.
